# Assay results published in patent US10472664B2, “Screening assay for identification of poly(ADP-ribose) polymerase 1 inhibitors” (Institute for Cancer Research, priority 2014, dated 2019).
# System: PARP-1
# Assay: PARP-1 regulation by purified histones in vitro, pADPr detected on Western blot
# Type: biochemical
# Conditions: PARP-1 pre-incubated with purified histone, then mixed with NAD; FIG. 2A, 2B
# Description: FIGS. 2A-D show PARP-1 protein regulation by histones (poly(ADP-ribose) polymer is denoted “pADPr”). […] Full-length PARP-1 protein (left) and PARP-1 protein cleaved by Caspase 3 (right) were pre-incubated with randomly broken DNA or core histone H4, followed by mixing with NAD. The products of PARP-1 enzymatic activity, poly(ADP-ribose), were detected after PAGE on a Western blot using the anti-pADPr antibody. […] PARP-1 was pre-incubated with different coregulators, followed by mixing with NAD. The amount of the product of PARP-1 enzymatic activity, poly(ADP-ribose), was detected after PAGE on a Western blot using the anti-Change(s) pADPr antibody and quantified independently using the Image Quant.
# The two pathways described in Example 1 can be separated in vitro by cleaving Zn-fingers from the PARP-1 protein using caspase 3. This isoform of PARP-1 can be still activated by H4, but not by DNA (FIG. 2, panel A). […] Although histones H2Av and H2AvSE inhibit PARP-1 by themselves, when contained inside of a nucleosome they facilitate PARP-1 interaction with H4 and thereby activate PARP-1 (FIG. 2 panel D). […] Without intending to be limited to any particular theory or mechanism of action, it is believed that interactions with histones play an important for PARP-1 activation in vivo in genotoxic stress response and in transcriptional pathways.
substance,measurement,value
H2Av: purified histone variant H2Av,PARP-1 activation (poly(ADP-ribose) production),does not activate PARP-1
